What was measured:
rat beta cells [1] = assay: Glucose utilization and oxidation by isolated beta cells; format: cell-based; conditions: 6-day HC treatment
Procedure: FIG. 9: Glucose utilization and oxidation by isolated beta cells after treatment with HC. Purified rat beta cells were cultured for six days in control medium (white squares) or with HC (black triangles) at 10 mM glucose. Glucose utilization (A) was determined by the rate of D-(5-^3H)glucose conversion into ^3H2O and glucose oxidation (B) by that of D-(U-^14C)glucose into ^14CO2 during a 2 h incubation period at the indicated concentrations of glucose without HC. Values represent means±SEM, n=6; *, p<0.05 versus control.
Because GC signaling controls metabolic processes including glucose metabolism and we have previously reported that glucose regulates rat beta cell numbers through effects on beta cell survival and proliferation (Assefa et al., 2014)(Example 1), we investigated whether HC-induced beta cell proliferation is associated with a change in glucose metabolism. First, the metabolic effect of a 6-day treatment with HC was analyzed by 2 h glucose utilization and oxidation rates at different glucose concentrations. […] Further, HC treatment doubles the rates of both utilization and oxidation at 10 mM glucose as compared to those in control cells (p<0.05).

rat beta cells [2] = assay: Beta cell viability / cell death (propidium iodide assay); format: cell-based; conditions: LOPAC screen at 1 μM; adult rat beta cells; day 6; control medium 97
From the text: Numbers of living beta cells were obtained by subtracting the PI-positive cell numbers from the Ho-positive cell numbers, and correcting for the percent insulin-negative cells, as determined following insulin-immunofluorescence staining. They were expressed as percent of the numbers on day 1. […] To detect beta cells that underwent two successive cycles, cells were sequentially exposed to two different thymidine-analogs, first EdU from day 3 to 6, and then BrdU (100 μmol/l) from day 7 to 10, with a 24-hour label-free period in between. EdU-positive (EdU^+) nuclei were detected with the Click-iT Assay kit (Invitrogen), while BrdU-positive (BrdU^+) nuclei were identified with anti-BrdU antibody.
Absolute number of cells was determined by whole-well imaging using the BD-PathwayBioimager855 (BD-Biosciences). IPLab and AttoVision software packages (BD-Biosciences) were used for image background subtraction, segmentation and quantification.
Freshly purified beta cells were cultured in control medium for 24 h prior to the addition of the LOPAC test compounds (day 1). The culture medium was refreshed on day 3 and the cells were then cultured further with 5-ethynyl-2′-deoxyuridine (EdU; 10 μM) up to day 6. […] Thus, a compound is considered a hit only if it increases the percent EdU incorporation to above three standard deviation of the plate-averaged percent EdU incorporation.

INS1 832/13 cell line = assay: Proliferation of INS1 832/13 cell line in serum-free medium; format: cell-based; conditions: serum-free culture medium; data not shown
alloxan-diabetic mice = assay: Implantation of in vitro expanded beta cells in alloxan-diabetic mice; format: in vivo
Procedure: FIG. 8. Alloxan-induced diabetes in mice can be reversed with implantation of in vitro-generated beta cells. Sorted beta cells were cultured in control medium or in the presence of HC up to day 9 and then switched to basal condition for the last six days of culture. IPGTT was used to determine glucose clearance rate. Glucose was administered (3 g/kg body weight) by in intraperitoneal injection into a 2 h-fasted animals and blood glucose levels were measured at the indicated time points during the following 120-min. Data are from animals transplanted with control cells (black triangles; n=3), in vitro expanded cells (black squares; n=5) and normal control animals (inverted triangles; n=2).
In this respect was it relevant to adjust culture conditions so that the expanded beta cell mass was not degranulated. We compared the in vivo function and hormone reserve of implants that were formed by equal numbers of beta cells collected from either control or HC-treated preparations, HC being withdrawn for the last 6 days (as in Table 7). At the end of 15 days culture, cell yield after HC was 54 to 110 percent higher than in control (paired cultures from three different islet isolation experiments), thus allowing preparation of more grafts per experiment. Respective grafts contained a similar number of beta cells and a similar total hormone content (for the three experiments between 10 to 15 μg insulin per graft). […] Both also presented an equally rapid normalization of glycemia following an intraperitoneal glucose load with similar kinetics to normal control animals (FIG. 8).

[3] = biological target: T1, glucocorticoid receptor (GR) (Homo sapiens, UniProt P04150); conditions: cited from earlier work
T1 sequence (P04150 1-777): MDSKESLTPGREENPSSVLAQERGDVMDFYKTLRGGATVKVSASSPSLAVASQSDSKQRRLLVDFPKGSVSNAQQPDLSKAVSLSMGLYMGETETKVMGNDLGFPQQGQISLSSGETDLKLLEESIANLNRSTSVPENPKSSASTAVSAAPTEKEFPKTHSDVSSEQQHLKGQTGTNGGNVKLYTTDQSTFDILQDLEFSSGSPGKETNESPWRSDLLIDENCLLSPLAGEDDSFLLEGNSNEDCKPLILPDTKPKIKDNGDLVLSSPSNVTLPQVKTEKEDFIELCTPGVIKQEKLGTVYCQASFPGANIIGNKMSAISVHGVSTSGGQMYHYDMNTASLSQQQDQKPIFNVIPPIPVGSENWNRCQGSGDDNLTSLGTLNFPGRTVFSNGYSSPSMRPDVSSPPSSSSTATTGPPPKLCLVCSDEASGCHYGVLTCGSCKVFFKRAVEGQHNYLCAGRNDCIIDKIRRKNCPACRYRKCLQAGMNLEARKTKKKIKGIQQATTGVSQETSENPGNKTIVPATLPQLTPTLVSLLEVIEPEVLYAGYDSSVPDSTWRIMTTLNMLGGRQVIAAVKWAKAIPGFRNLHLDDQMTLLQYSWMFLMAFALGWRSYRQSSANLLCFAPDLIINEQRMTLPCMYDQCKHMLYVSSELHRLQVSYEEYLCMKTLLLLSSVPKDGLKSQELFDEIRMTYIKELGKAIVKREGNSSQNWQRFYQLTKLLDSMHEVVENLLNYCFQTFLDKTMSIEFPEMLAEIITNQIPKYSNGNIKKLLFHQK

C[C@]12CCC(=O)C=C1CC[C@@H]1[C@@H]2[C@@H](O)C[C@@]2(C)[C@H]1CC[C@]2(O)C(=O)CO [Hydrocortisone, hydrocortisone]
rates of glucose utilization and oxidation compared to control cells (rat beta cells [1]; 10 mM glucose): doubles | increase of glucose utilization and oxidation over control cells (rat beta cells [1]; 20 mM glucose): 50% | Percent viable cells (rat beta cells [2]): 97% | proliferation of INS1 832/13 cell line (INS1 832/13 cell line): does not induce the proliferation | circulating C-peptide level at week 1 post-transplantation (alloxan-diabetic mice; HC group grafts, control 2.3±0.2): 2.4 ± 0.2 nM | circulating C-peptide level at week 5 post-transplantation (alloxan-diabetic mice; HC group grafts, control 2.6±0.2): 2.6 ± 0.4 nM | Insulin Content, Pancreas (alloxan-diabetic mice; animals transplanted with cells from proliferation condition (HC up to day 9, then control medium)): 0.7 ± 0.2 μg/sample | Insulin Content, Graft (alloxan-diabetic mice; animals transplanted with cells from proliferation condition (HC up to day 9, then control medium), post-transplantation week 4): 7.2 ± 1.3 μg/sample | correction of hyperglycemia after implantation (alloxan-diabetic mice; grafts of HC-treated beta cells in abdominal fat pad): corrected hyperglycemia within one week | Relative Potencies GR [3]: 1

Source: patent publication US20160274087A1, “SCREENING ASSAY FOR AGENTS THAT INFLUENCE BETA CELL NUMBER AND/OR PHENOTYPE” (VRIJE UNIVERSITEIT BRUSSEL, priority 2013, published 2016)
